≈ marks a conversion by molar mass, not a printed value.
Tests used:
[1] = system: Mycobacterium tuberculosis; test: microbe, parasite or virus in culture
[2] = system: Mycobacterium tuberculosis; assay type: functional

Compound	MIC90 [1] [µM]	Ratio [2]
Cc1c(NCc2nnc(-c3ccccc3Cl)o2)c(=O)n(-c2ccccc2)n1C	12.7 (≈ 5.01 µg/mL)	
Cc1c(NCc2nnc(-c3ccc(Cl)cc3)o2)c(=O)n(-c2ccccc2)n1C	12.7 (≈ 5.01 µg/mL)	
Cc1c(NCc2nnc(-c3ccc(N)cc3)o2)c(=O)n(-c2ccccc2)n1C	8.29 (≈ 3.12 µg/mL)	1.4
Cc1c(NCc2nnc(-c3ccncc3)o2)c(=O)n(-c2ccccc2)n1C	1.52 (≈ 0.551 µg/mL)	7.6
Cc1c(NCc2nnc(-c3ccccc3)o2)c(=O)n(-c2ccccc2)n1C	13.8 (≈ 4.99 µg/mL)	
Cc1ccc(-c2nnc(CNc3c(C)n(C)n(-c4ccccc4)c3=O)o2)cc1	13.3 (≈ 5 µg/mL)	
Cc1c(NCc2nnc(Cc3ccccc3)o2)c(=O)n(-c2ccccc2)n1C	> 13.3	
Cc1c(NCc2nnc(COc3ccccc3)o2)c(=O)n(-c2ccccc2)n1C	12.8 (≈ 5 µg/mL)	
Cc1c(NCc2nnc(-c3cccs3)o2)c(=O)n(-c2ccccc2)n1C	13.6 (≈ 5 µg/mL)	
NNC(=O)c1ccncc1 [ISONIAZID]	11.6 (≈ 1.59 µg/mL)	
